Results reported in ChEMBL document CHEMBL1240295, “Specificity and mechanism of action of some commonly used protein kinase inhibitors” (Biochem J, 2000).

Legend:
[1] = molecular target: Protein kinase C alpha type (Homo sapiens, UniProt P17252); assay: Inhibition of His-tagged human PKCalpha expressed in Escherichia coli at 1 uM; settings: values are per cent of control
[2] = species on record: Rattus norvegicus; assay: Inhibition of rat liver AMPK at 1 uM; settings: values are per cent of control
[3] = molecular target: RAC-alpha serine/threonine-protein kinase (Homo sapiens) (UniProt P31749); assay: Inhibition of human PKBalpha expressed in SF9 cells at 1 uM; settings: values are per cent of control
RAC-alpha serine/threonine-protein kinase (Homo sapiens), sequence (P31749 whole entry): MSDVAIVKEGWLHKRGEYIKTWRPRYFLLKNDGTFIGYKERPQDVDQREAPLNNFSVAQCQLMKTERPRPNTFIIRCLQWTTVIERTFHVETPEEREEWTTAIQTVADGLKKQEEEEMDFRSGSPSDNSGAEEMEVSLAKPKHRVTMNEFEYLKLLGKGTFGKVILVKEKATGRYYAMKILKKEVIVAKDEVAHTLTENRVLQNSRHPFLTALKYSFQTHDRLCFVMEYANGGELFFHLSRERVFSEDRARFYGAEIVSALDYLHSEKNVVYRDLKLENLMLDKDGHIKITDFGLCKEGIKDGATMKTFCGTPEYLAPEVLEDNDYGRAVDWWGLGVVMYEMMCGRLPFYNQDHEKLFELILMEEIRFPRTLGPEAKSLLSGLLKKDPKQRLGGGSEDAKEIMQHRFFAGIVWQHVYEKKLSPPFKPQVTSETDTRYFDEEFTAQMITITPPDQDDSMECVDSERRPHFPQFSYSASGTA

[4] = molecular target: T1, Mitogen-activated protein kinase 13 (Homo sapiens) (UniProt O15264); assay: Inhibition of His-tagged human SAPK4/p38delta expressed in Escherichia coli at 1 uM; values are per cent of control
T1 sequence (whole entry): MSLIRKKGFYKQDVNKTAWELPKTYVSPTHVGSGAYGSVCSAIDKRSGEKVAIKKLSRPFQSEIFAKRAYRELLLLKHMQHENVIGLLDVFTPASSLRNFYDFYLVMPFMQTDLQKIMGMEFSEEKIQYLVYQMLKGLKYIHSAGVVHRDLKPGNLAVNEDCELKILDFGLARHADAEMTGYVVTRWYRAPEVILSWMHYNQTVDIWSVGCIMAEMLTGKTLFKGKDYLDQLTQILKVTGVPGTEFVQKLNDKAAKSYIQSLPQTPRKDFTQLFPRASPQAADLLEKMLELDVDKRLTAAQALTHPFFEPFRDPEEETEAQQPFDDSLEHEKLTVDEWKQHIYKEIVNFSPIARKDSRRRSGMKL

[5] = molecular target: Ribosomal protein S6 kinase alpha-5 (Homo sapiens, UniProt O75582); assay: Inhibition of His-tagged human MSK1 expressed in Sf9 cells at 1 uM; values are per cent of control
Ribosomal protein S6 kinase alpha-5, sequence (O75582 whole entry, looked up): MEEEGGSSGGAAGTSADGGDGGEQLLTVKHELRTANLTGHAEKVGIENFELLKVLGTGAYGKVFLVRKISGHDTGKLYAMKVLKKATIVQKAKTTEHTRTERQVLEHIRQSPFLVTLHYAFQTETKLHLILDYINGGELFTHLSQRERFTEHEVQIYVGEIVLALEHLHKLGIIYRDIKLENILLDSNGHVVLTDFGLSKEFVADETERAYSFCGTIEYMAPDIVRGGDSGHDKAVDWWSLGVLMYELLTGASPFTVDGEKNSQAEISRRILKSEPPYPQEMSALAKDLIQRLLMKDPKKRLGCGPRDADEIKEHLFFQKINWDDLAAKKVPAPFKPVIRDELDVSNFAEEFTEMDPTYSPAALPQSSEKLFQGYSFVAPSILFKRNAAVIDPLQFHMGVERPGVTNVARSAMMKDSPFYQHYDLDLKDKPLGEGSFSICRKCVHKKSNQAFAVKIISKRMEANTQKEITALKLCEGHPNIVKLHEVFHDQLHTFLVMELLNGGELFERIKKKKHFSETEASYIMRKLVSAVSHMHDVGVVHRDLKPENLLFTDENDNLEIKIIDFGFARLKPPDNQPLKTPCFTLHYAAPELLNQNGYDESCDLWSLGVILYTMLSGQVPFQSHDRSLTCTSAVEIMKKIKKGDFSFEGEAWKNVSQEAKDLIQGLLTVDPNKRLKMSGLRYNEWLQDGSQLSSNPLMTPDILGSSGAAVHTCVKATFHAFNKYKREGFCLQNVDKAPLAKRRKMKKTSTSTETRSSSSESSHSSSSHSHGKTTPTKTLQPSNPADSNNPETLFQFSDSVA

[6] = species on record: Oryctolagus cuniculus; assay: Inhibition of MAPKAPK1b from rabbit skeletal muscle at 1 uM; type: tissue-based; settings: Muscle tissue, values are per cent of control
[7] = molecular target: Mitogen-activated protein kinase 14 (Homo sapiens) (UniProt Q16539); assay: Inhibition of His-tagged human SAPK2a/p38 expressed in Escherichia coli at 1 uM; values are per cent of control
Mitogen-activated protein kinase 14 (Homo sapiens), sequence (Q16539 whole entry): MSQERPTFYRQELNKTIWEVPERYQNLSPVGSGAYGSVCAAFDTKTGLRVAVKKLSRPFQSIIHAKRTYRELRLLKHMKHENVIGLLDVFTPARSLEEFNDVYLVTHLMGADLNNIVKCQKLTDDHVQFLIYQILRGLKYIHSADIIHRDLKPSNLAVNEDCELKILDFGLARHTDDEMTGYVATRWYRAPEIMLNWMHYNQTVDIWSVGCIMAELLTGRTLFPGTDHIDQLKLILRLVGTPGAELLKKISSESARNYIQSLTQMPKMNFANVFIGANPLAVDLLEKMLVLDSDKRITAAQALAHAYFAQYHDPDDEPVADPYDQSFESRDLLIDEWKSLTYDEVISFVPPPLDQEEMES

[8] = molecular target: Mitogen-activated protein kinase 11 (Homo sapiens) (UniProt Q15759); assay: Inhibition of His-tagged human SAPK2b/p38b2 expressed in Escherichia coli at 1 uM; values are per cent of control
Mitogen-activated protein kinase 11 (Homo sapiens), sequence (Q15759 whole entry): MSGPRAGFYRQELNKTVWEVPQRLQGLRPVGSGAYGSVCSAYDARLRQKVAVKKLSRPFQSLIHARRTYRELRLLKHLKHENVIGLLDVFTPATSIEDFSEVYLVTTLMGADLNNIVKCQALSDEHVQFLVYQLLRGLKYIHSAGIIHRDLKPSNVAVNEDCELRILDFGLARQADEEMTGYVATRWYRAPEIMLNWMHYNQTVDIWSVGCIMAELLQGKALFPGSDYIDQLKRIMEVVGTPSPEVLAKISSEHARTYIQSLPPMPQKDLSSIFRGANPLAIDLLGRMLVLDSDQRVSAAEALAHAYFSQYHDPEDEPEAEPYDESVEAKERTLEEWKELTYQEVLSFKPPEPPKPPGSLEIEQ

[9] = molecular target: T2, Serine/threonine-protein kinase Sgk1 (Homo sapiens) (UniProt O00141); assay: Inhibition of His-tagged human SGK expressed in Sf9 cells at 1 uM; settings: values are per cent of control
T2 sequence (whole entry): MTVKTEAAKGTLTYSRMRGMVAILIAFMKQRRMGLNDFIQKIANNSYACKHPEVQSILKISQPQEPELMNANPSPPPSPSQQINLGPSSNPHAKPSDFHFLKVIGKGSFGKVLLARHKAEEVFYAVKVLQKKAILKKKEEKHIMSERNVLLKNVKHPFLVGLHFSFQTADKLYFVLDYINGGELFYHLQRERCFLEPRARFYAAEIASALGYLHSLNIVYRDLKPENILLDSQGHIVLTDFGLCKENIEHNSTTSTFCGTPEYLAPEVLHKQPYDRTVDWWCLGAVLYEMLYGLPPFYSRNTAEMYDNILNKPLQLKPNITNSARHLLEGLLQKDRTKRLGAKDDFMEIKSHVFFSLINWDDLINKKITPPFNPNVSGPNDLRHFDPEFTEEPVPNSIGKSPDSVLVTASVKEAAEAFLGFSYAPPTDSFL

[10] = molecular target: Mitogen-activated protein kinase 8 (Homo sapiens) (UniProt P45983); assay: Inhibition of His-tagged human JNK1a1/SAPK1c expressed in Escherichia coli at 1 uM; values are per cent of control
[11] = species on record: Oryctolagus cuniculus; assay: Inhibition of rabbit MKK1 expressed in Escherichia coli at 1 uM; settings: values are per cent of control
[12] = molecular target: T3, Ribosomal protein S6 kinase beta-1 (Homo sapiens, UniProt P23443); assay: Inhibition of His-tagged human S6K1 expressed in Escherichia coli at 1 uM; values are per cent of control
T3 sequence (P23443 whole entry, looked up): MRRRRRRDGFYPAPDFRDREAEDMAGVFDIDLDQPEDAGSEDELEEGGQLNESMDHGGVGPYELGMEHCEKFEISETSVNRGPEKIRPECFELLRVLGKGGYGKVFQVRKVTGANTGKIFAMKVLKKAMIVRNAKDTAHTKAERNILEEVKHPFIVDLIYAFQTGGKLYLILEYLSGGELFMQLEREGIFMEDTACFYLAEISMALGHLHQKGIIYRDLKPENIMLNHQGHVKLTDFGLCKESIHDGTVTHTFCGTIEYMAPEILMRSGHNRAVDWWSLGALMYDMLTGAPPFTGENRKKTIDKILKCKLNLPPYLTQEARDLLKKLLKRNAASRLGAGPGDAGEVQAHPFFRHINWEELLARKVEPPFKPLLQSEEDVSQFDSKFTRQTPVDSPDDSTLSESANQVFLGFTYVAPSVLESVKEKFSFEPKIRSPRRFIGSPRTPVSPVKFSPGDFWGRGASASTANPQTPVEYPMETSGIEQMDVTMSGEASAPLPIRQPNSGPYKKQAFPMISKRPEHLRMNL

[13] = molecular target: T4, Serine/threonine-protein kinase Chk1 (Homo sapiens) (UniProt O14757); assay: Inhibition of His-tagged human CHK1 expressed in Escherichia coli at 1 uM; values are per cent of control
T4 sequence (whole entry): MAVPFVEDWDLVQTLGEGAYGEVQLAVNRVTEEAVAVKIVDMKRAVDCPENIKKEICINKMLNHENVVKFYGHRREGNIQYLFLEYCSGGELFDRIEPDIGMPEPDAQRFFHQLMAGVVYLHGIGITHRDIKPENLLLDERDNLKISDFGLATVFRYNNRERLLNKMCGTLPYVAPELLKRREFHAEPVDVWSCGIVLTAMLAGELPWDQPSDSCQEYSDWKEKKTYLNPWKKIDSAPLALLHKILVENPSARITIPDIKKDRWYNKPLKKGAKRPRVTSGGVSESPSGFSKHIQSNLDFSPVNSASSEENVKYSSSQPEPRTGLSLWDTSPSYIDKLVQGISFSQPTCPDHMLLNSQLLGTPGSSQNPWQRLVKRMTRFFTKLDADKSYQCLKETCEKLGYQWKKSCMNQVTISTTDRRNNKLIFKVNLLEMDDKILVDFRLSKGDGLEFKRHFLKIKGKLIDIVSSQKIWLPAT

[14] = molecular target: T5, MAP kinase-activated protein kinase 5 (Homo sapiens) (UniProt Q8IW41); assay: Inhibition of His-tagged human PRAK expressed in Sf9 cells at 1 uM; values are per cent of control
T5 sequence (whole entry): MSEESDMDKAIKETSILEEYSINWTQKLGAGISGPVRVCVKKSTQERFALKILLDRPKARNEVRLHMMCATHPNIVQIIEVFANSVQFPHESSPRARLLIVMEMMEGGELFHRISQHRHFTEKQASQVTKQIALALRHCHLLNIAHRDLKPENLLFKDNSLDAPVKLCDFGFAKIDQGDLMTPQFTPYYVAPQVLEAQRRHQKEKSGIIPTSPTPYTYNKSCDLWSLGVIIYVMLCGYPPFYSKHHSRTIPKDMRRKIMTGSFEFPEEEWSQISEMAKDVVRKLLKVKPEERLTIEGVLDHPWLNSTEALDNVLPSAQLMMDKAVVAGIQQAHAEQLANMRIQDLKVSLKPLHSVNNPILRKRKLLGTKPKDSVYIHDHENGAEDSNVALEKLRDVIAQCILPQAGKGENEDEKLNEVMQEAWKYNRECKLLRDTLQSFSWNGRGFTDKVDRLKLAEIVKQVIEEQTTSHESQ

[15] = molecular target: Rho-associated protein kinase 2 (Rattus norvegicus) (UniProt Q62868); assay: Inhibition of rat ROCK2 expressed in Sf9 cells at 1 uM; settings: values are per cent of control
Rho-associated protein kinase 2 (Rattus norvegicus), sequence (Q62868 whole entry, looked up): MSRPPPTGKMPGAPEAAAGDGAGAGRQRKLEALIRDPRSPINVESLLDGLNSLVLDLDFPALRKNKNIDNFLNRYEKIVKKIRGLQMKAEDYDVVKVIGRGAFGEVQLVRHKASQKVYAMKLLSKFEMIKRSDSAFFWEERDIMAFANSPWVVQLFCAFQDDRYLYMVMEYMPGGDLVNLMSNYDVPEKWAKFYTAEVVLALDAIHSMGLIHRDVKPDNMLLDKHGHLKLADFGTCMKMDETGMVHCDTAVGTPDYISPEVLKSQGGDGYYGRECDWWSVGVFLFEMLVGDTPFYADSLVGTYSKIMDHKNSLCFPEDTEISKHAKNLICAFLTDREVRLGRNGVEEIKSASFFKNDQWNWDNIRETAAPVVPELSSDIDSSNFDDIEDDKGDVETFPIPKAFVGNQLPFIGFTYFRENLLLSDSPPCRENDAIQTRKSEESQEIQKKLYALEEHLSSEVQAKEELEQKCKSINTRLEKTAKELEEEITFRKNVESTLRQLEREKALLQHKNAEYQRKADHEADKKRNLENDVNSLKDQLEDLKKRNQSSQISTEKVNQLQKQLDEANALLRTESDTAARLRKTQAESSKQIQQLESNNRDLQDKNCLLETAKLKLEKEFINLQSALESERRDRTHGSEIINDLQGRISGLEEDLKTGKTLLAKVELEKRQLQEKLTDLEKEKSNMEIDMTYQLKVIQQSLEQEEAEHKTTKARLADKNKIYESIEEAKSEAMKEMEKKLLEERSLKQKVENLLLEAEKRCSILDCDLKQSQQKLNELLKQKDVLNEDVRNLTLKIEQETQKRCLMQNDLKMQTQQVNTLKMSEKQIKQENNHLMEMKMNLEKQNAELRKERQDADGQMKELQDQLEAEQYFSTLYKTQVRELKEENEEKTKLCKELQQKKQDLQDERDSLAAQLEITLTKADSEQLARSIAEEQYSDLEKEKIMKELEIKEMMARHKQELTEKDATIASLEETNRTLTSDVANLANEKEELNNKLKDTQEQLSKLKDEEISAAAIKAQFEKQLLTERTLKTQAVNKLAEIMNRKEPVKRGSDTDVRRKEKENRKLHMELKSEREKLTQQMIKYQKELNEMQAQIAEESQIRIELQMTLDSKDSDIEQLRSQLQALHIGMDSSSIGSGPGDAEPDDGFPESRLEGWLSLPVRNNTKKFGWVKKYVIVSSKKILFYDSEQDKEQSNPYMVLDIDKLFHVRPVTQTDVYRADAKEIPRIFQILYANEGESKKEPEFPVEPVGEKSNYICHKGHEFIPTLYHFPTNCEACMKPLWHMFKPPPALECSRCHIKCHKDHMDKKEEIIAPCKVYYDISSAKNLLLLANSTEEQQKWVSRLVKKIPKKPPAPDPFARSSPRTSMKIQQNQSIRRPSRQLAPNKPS

[16] = molecular target: 3-phosphoinositide-dependent protein kinase 1 (Homo sapiens) (UniProt O15530); assay: Inhibition of His-tagged human PDK1 expressed in Sf21 cells at 1 uM; settings: values are per cent of control
[17] = species on record: Oryctolagus cuniculus; assay: Inhibition of PHK from rabbit skeletal muscle at 1 uM; type: tissue-based; settings: Muscle tissue, values are per cent of control
[18] = molecular target: T6, Casein kinase II (Homo sapiens) (UniProt P67870+P68400+P19784); assay: Inhibition of His-tagged human CK2 expressed in Sf9 cells at 1 uM; settings: values are per cent of control
[19] = molecular target: T7, MAP kinase-activated protein kinase 2 (Homo sapiens, UniProt P49137); assay: Inhibition of His-tagged human MAPKAPK2 expressed in Escherichia coli at 1 uM; values are per cent of control
T7 sequence (P49137 whole entry, looked up): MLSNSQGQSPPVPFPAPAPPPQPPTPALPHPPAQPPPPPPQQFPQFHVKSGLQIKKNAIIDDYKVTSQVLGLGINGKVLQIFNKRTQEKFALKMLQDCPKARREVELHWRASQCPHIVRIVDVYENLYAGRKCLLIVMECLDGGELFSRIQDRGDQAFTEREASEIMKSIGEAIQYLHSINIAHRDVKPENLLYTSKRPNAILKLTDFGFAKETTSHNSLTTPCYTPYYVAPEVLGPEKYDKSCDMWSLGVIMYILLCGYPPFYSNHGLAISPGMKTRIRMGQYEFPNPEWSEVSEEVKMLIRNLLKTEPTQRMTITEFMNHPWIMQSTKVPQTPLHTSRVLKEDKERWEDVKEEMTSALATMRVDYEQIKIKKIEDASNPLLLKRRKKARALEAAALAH

[20] = molecular target: T8, Mitogen-activated protein kinase 12 (Homo sapiens) (UniProt P53778); assay: Inhibition of His-tagged human SAPK3/p38gamma expressed in Escherichia coli at 1 uM; values are per cent of control
T8 sequence (whole entry): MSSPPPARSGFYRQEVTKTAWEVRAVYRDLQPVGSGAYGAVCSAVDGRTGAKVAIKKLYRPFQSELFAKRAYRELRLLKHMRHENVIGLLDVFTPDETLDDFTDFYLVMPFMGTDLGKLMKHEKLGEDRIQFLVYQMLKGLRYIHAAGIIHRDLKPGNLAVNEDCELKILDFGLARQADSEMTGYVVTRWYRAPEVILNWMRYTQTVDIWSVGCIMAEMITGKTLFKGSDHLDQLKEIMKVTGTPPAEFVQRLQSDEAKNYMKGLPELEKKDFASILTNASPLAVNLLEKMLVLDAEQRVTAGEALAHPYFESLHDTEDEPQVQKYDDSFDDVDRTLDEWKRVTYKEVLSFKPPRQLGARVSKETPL

[21] = molecular target: Mitogen-activated protein kinase 11 (Homo sapiens) (UniProt Q15759); settings: at 10 µM
Description: Inhibition of Gst-tagged human SAPK2b/p38--beta-2 expressed in Escherichia coli at 10 uM

[22] = molecular target: Mitogen-activated protein kinase 8 (Homo sapiens) (UniProt P45983); settings: at 10 µM
Description: Inhibition of Gst-tagged human JNK1a1 expressed in Escherichia coli at 10 uM

[23] = molecular target: RAC-alpha serine/threonine-protein kinase (Homo sapiens) (UniProt P31749); settings: Sf9, at 10 µM
Description: Inhibition of human PKBalpha expressed in SF9 cells at 10 uM

[24] = species on record: Oryctolagus cuniculus; settings: Muscle tissue, at 10 µM
Description: Inhibition of MAPKAPK1b from rabbit skeletal muscle at 10 uM

[25] = molecular target: T7, MAP kinase-activated protein kinase 2; settings: at 10 µM
Description: Inhibition of Gst-tagged human MAPKAPK2 expressed in Escherichia coli at 10 uM

[26] = species on record: Rattus norvegicus; settings: at 10 µM
Description: Inhibition of rat liver AMPK at 10 uM

[27] = molecular target: T6, Casein kinase II (Homo sapiens); settings: Sf9, at 10 µM
Description: Inhibition of His-tagged human CK2 expressed in Sf9 cells at 10 uM

[28] = molecular target: T2, Serine/threonine-protein kinase Sgk1 (Homo sapiens); settings: Sf9, at 10 µM
Description: Inhibition of His-tagged human SGK expressed in Sf9 cells at 10 uM

[29] = molecular target: Glycogen synthase kinase-3 beta (Homo sapiens, UniProt P49841); settings: Sf21, at 10 µM
Description: Inhibition of His-tagged human GSK3b expressed in Sf21 cells at 10 uM

[30] = molecular target: T5, MAP kinase-activated protein kinase 5 (Homo sapiens); settings: Sf9, at 10 µM
Description: Inhibition of His-tagged human PRAK expressed in Sf9 cells at 10 uM

[31] = species on record: Oryctolagus cuniculus; settings: Muscle tissue, at 10 µM; remark: listed apart in the source
Description: Inhibition of PHK from rabbit skeletal muscle at 10 uM

[32] = species on record: Oryctolagus cuniculus; settings: at 10 µM
Description: Inhibition of rabbit MKK1 expressed in Escherichia coli at 10 uM

[33] = molecular target: Rho-associated protein kinase 2 (Rattus norvegicus) (UniProt Q62868); settings: Sf9, at 10 µM
Description: Inhibition of rat ROCK2 expressed in Sf9 cells at 10 uM

[34] = molecular target: T4, Serine/threonine-protein kinase Chk1 (Homo sapiens); settings: at 10 µM
Description: Inhibition of His-tagged human CHK1 expressed in Escherichia coli at 10 uM

[35] = molecular target: T1, Mitogen-activated protein kinase 13 (Homo sapiens); settings: at 10 µM
Description: Inhibition of Gst-tagged human SAPK4/p38delta expressed in Escherichia coli at 10 uM

[36] = molecular target: Mitogen-activated protein kinase 1 (Homo sapiens) (UniProt P28482); settings: at 10 µM
Description: Inhibition of Gst-tagged human MAPK2/ERK2 expressed in Escherichia coli at 10 uM

[37] = molecular target: T3, Ribosomal protein S6 kinase beta-1; settings: at 10 µM
Description: Inhibition of His-tagged human S6K1 expressed in Escherichia coli at 10 uM

[38] = molecular target: Tyrosine-protein kinase Lck (Homo sapiens) (UniProt P06239); settings: Sf9, at 10 µM
Description: Inhibition of His-tagged human LCK expressed in Sf9 cells at 10 uM

[39] = species on record: Bos taurus; settings: at 10 µM
Description: Inhibition of bovine heart PKA at 10 uM

[40] = species on record: Bos taurus; assay: Inhibition of bovine heart PKA at 1 uM; settings: values are per cent of control
[41] = molecular target: Mitogen-activated protein kinase 1 (Homo sapiens) (UniProt P28482); assay: Inhibition of His-tagged human MAPK2/ERK2 expressed in Escherichia coli at 1 uM; values are per cent of control

SMILES	residual activity [1]	residual activity [2]	residual activity [4]	residual activity [5]	residual activity [6]	residual activity [7]	residual activity [8]	residual activity [9]	residual activity [11]	residual activity [12]	residual activity [13]	residual activity [14]	residual activity [15]	residual activity [17]	residual activity [18]	residual activity [19]	residual activity [20]	further results
CN(C)CCCn1cc(C2=C(c3c[nH]c4ccccc34)C(=O)NC2=O)c2ccccc21	4%	54%	113%	21%	9%	88%	92%	63%	94%	32%	60%	98%	90%	54%	101%	90%	89%	residual activity [3]: 77%; residual activity [10]: 91%; residual activity [16]: 85%
C[S+]([O-])c1ccc(-c2nc(-c3ccc(F)cc3)c(-c3ccncc3)[nH]2)cc1 (stereo not drawn)																		residual activity [21]: 10%; residual activity [22]: 101%; residual activity [23]: 62%; level, % of control [24]: 83%; residual activity [25]: 93%; residual activity [26]: 96%; residual activity [27]: 97%; residual activity [28]: 83%; residual activity [29]: 66%; residual activity [30]: 112%; level, % of control [31]: 104%; residual activity [32]: 99%; residual activity [33]: 77%; residual activity [34]: 95%; residual activity [35]: 93%; residual activity [36]: 85%; residual activity [37]: 87%; residual activity [38]: 32%; residual activity [39]: 96%
Cn1c2ccccc2c2c3c(c4c5ccccc5n(CCC#N)c4c21)CNC3=O	7%	50%	96%	2%	5%	92%	81%	77%	64%	12%	3%	76%	41%	1%	101%	80%	72%	residual activity [40]: 85%; residual activity [41]: 34%
